# Reference: patent publication US11986532B2 (Arvinas Operations, Inc., priority 2021, dated 2024)
# Read-outs that look alike come from different tables or passages of the source.
# Target: T1, BCL6 (Homo sapiens, UniProt P41182)
# T1 construct: endogenous in cells; host or cells: T47D breast cancer epithelial cells
# Assay: Immunofluorescence protocol for high content imaging of BCL6 (degradation) in T47D cells, 3 days compound treatment
# Assay type: cell-based
# Conditions: for Dmax: read-out: Mean Dmax (%)** category; for DC50: read-out: Mean DC50 (nM)* category
# In short: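 High content immunofluorescence imaging (10×, 4 fields/well) of BCL6 using rabbit primary antibody, Alexa-488 secondary, cell mask and Hoechst nuclear stain after PFA fixation. Before staining, T47D cells (7K/well) were exposed for 3 days at 37° C to 3-fold serial dilutions of compound, top final concentration 0.1 or 1 μM.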
# [1] = T47D cells, 3 days compound treatment
DC50 [1],Dmax [1],SMILES,Dmax (T47D),DC50
,,"CNC(=O)COc1cc2cc(Nc3nc(N4CCC(O[C@H]5C[C@H](N6CC7(CCN7c7cccc8c7C(=O)N(C7CCC(=O)NC7=O)C8)C6)C5)CC4)ncc3Cl)ccc2n(C(C)C)c1=O (stereo partly drawn) [Compound 310, 2-({6-[(5-chloro-2-{4-[(1r,3r)-3-{1-[2-(2,6-dioxopiperidin-3-yl)-3-oxo-2,3-dihydro-1H-isoindol-4-yl]-1,6-diazaspiro[3.3]heptan-6-yl}cyclobutoxy]piperidin-1-yl}pyrimidin-4-yl)amino]-2-oxo-1-(propan-2-yl)-1,2-dihydroquinolin-3-yl}oxy)-N-methylacetamide]",50 to 70%,< 10 nM
10 to 50 nM,50 to 70%,"CNC(=O)COc1cc2cc(Nc3nc(N4CCC(F)(CN5CCC6(CC5)CN(c5ccc7c(c5)C(=O)N(C5CCC(=O)NC5=O)C7=O)C6)CC4)ncc3Cl)ccc2n(C(C)C)c1=O (stereo not drawn) [Compound 43, 2-{[6-({5-chloro-2-[4-({2-[2-(2,6-dioxopiperidin-3-yl)-1,3-dioxo-2,3-dihydro-1H-isoindol-5-yl]-2,7-diazaspiro [3.5]nonan-7-yl}methyl)-4-fluoropiperidin-1-yl]pyrimidin-4-yl}amino)-2-oxo-1-(propan-2-yl)-1,2-dihydroquinolin-3-yl]oxy}-N-methylacetamide]",,
,,"CNC(=O)COc1cc2cc(Nc3cc(N4CCC(F)(CN5CCC6(CC5)CN(c5ccc7c(c5)CN(C5CCC(=O)NC5=O)C7=O)C6(C)C)CC4)ncc3Cl)ccc2n(C(C)C)c1=O (stereo not drawn) [Compound 240, 2-{[6-({5-chloro-2-[4-({2-[2-(2,6-dioxopiperidin-3-yl)-1-oxo-2,3-dihydro-1H-isoindol-5-yl]-1,1-dimethyl-2,7-diazaspiro[3.5]nonan-7-yl}methyl)-4-fluoropiperidin-1-yl]pyridin-4-yl}amino)-2-oxo-1-(propan-2-yl)-1,2-dihydroquinolin-3-yl]oxy}-N-methylacetamide]",≥ 70%,< 10 nM
,,"CNC(=O)COc1cc2cc(Nc3nc(N4CCC(O[C@H]5C[C@H](N6CC7(CN(c8ccc9c(c8C)C(=O)N(C8CCC(=O)NC8=O)C9=O)C7)C6)C5)CC4)ncc3Cl)ccc2n(C(C)C)c1=O (stereo partly drawn) [Compound 420, 2-({6-[(5-chloro-2-{4-[(1r,3r)-3-{6-[2-(2,6-dioxopiperidin-3-yl)-4-methyl-1,3-dioxo-2,3-dihydro-1H-isoindol-5-yl]-2,6-diazaspiro[3.3]heptan-2-yl}cyclobutoxy]piperidin-1-yl}pyrimidin-4-yl)amino]-2-oxo-1-(propan-2-yl)-1,2-dihydroquinolin-3-yl}oxy)-N-methylacetamide]",≥ 70%,< 10 nM
,,"CNC(=O)COc1cc2cc(Nc3nc(N4CCC(O[C@H]5C[C@H](N6CC7CCC(C6)N7c6ccc7c(c6)CN(C6CCC(=O)NC6=O)C7=O)C5)CC4)ncc3Cl)ccc2n(C(C)C)c1=O (stereo partly drawn) [Compound 371, 2-({6-[(5-chloro-2-{4-[(1r,3r)-3-{8-[2-(2,6-dioxopiperidin-3-yl)-1-oxo-2,3-dihydro-1H-isoindol-5-yl]-3,8-diazabicyclo[3.2.1]octan-3-yl}cyclobutoxy]piperidin-1-yl}pyrimidin-4-yl)amino]-2-oxo-1-(propan-2-yl)-1,2-dihydroquinolin-3-yl}oxy)-N-methylacetamide]",< 50%,< 10 nM
,,"CNC(=O)COc1cc2cc(Nc3nc(N4CCC(CN5CCC6(CN(c7ccc8c(c7)C(=O)N(C7CCC(=O)NC7=O)C8=O)C6)CC5(C)C)CC4)ncc3Cl)ccc2n(C(C)C)c1=O (stereo not drawn) [Compound 239, 2-{[6-({5-chloro-2-[4-({2-[2-(2,6-dioxopiperidin-3-yl)-1,3-dioxo-2,3-dihydro-1H-isoindol-5-yl]-6,6-dimethyl-2,7-diazaspiro[3.5]nonan-7-yl}methyl)piperidin-1-yl]pyrimidin-4-yl}amino)-2-oxo-1-(propan-2-yl)-1,2-dihydroquinolin-3-yl]oxy}-N-methylacetamide]",≥ 70%,< 10 nM
,,"CNC(=O)COc1cc2cc(Nc3nc(N4CCC(O[C@H]5C[C@H](N6CCN(c7cc(F)c(F)c8c7C(=O)N(C7CCC(=O)NC7=O)C8)CC6)C5)CC4)ncc3Cl)ccc2n(C(C)C)c1=O (stereo partly drawn) [Compound 274, 2-({6-[(5-chloro-2-{4-[(1r,3r)-3-{4-[2-(2,6-dioxopiperidin-3-yl)-6,7-difluoro-3-oxo-2,3-dihydro-1H-isoindol-4-yl]piperazin-1-yl}cyclobutoxy]piperidin-1-yl}pyrimidin-4-yl)amino]-2-oxo-1-(propan-2-yl)-1,2-dihydroquinolin-3-yl}oxy)-N-methylacetamide]",< 50%,10 to 50 nM
,,"CNC(=O)COc1cc2cc(Nc3nc(N4CCC(O[C@H]5C[C@H](N6CC[C@H](c7ccc8c(c7F)CN(C7CCC(=O)NC7=O)C8=O)C(C)(C)C6)C5)CC4)ncc3Cl)ccc2n(C(C)C)c1=O (stereo partly drawn) [Compound 431, 2-({6-[(5-chloro-2-{4-[(1r,3r)-3-[(4S)-4-[2-(2,6-dioxopiperidin-3-yl)-4-fluoro-1-oxo-2,3-dihydro-1H-isoindol-5-yl]-3,3-dimethylpiperidin-1-yl]cyclobutoxy]piperidin-1-yl}pyrimidin-4-yl)amino]-2-oxo-1-(propan-2-yl)-1,2-dihydroquinolin-3-yl}oxy)-N-methylacetamide]",≥ 70%,< 10 nM
,,"CNC(=O)COc1cc2cc(Nc3nc(N4CCC(O[C@H]5C[C@H](N6CCC7(CCN(c8ccc9c(c8)CN(C8CCC(=O)NC8=O)C9=O)C7)C6)C5)CC4)ncc3Cl)ccc2n(C(C)C)c1=O (stereo partly drawn) [Compound 346, 2-({6-[(5-chloro-2-{4-[(1r,3r)-3-{7-[2-(2,6-dioxopiperidin-3-yl)-1-oxo-2,3-dihydro-1H-isoindol-5-yl]-2,7-diazaspiro [4.4]nonan-2-yl}cyclobutoxy]piperidin-1-yl}pyrimidin-4-yl)amino]-2-oxo-1-(propan-2-yl)-1,2-dihydroquinolin-3-yl}oxy)-N-methylacetamide]",≥ 70%,< 10 nM
,,"CNC(=O)COc1cc2cc(Nc3nc(N4CCC(O[C@H]5C[C@H](N6CC7(CCN(c8ccc9c(c8)C(=O)N(C8CCC(=O)NC8=O)C9=O)CC7)C6)C5)CC4)ncc3Cl)ccc2n(C(C)C)c1=O (stereo partly drawn) [Compound 365, 2-({6-[(5-chloro-2-{4-[(1r,3r)-3-{7-[2-(2,6-dioxopiperidin-3-yl)-1,3-dioxo-2,3-dihydro-1H-isoindol-5-yl]-2,7-diazaspiro [3.5]nonan-2-yl}cyclobutoxy]piperidin-1-yl}pyrimidin-4-yl)amino]-2-oxo-1-(propan-2-yl)-1,2-dihydroquinolin-3-yl}oxy)-N-methylacetamide]",50 to 70%,< 10 nM
,,"CNC(=O)COc1cc2cc(Nc3nc(N4CCC(O[C@H]5C[C@H](N6CC7(CCN(c8ccc9c(c8)CN(C8CCC(=O)NC8=O)C9=O)C7)C6)C5)CC4)ncc3Cl)ccc2n(C(C)C)c1=O (stereo partly drawn) [Compound 351, 2-({6-[(5-chloro-2-{4-[(1r,3r)-3-{6-[2-(2,6-dioxopiperidin-3-yl)-1-oxo-2,3-dihydro-1H-isoindol-5-yl]-2,6-diazaspiro [3.4]octan-2-yl}cyclobutoxy]piperidin-1-yl}pyrimidin-4-yl)amino]-2-oxo-1-(propan-2-yl)-1,2-dihydroquinolin-3-yl}oxy)-N-methylacetamide]",≥ 70%,< 10 nM
,,"CNC(=O)COc1cc2cc(Nc3nc(N4CCC(OC5CCC6(CC5)CN(c5cc(F)cc7c5CN(C5CCC(=O)NC5=O)C7=O)C6)CC4)ncc3Cl)ccc2n(C(C)C)c1=O (stereo not drawn) [Compound 299, 2-{[6-({5-chloro-2-[4-({2-[2-(2,6-dioxopiperidin-3-yl)-6-fluoro-1-oxo-2,3-dihydro-1H-isoindol-4-yl]-2-azaspiro[3.5]nonan-7-yl}oxy)piperidin-1-yl]pyrimidin-4-yl}amino)-2-oxo-1-(propan-2-yl)-1,2-dihydroquinolin-3-yl]oxy}-N-methylacetamide]",50 to 70%,< 10 nM
,,"CNC(=O)COc1cc2cc(Nc3nc(N4CCC(O[C@H]5C[C@H](N6CCC(c7c(OC)cc8c(c7F)CN(C7CCC(=O)NC7=O)C8=O)CC6)C5)CC4)ncc3Cl)ccc2n(C(C)C)c1=O (stereo partly drawn) [Compound 409, 2-({6-[(5-chloro-2-{4-[(1r,3r)-3-{4-[2-(2,6-dioxopiperidin-3-yl)-4-fluoro-6-methoxy-1-oxo-2,3-dihydro-1H-isoindol-5-yl]piperidin-1-yl}cyclobutoxy]piperidin-1-yl}pyrimidin-4-yl)amino]-2-oxo-1-(propan-2-yl)-1,2-dihydroquinolin-3-yl}oxy)-N-methylacetamide]",≥ 70%,< 10 nM
,,"CNC(=O)COc1cc2cc(Nc3nc(N4CCC(O[C@H]5C[C@H](N6CCC(c7ccc8c(n7)CN(C7CCC(=O)NC7=O)C8=O)CC6)C5)CC4)ncc3Cl)ccc2n(C(C)C)c1=O (stereo partly drawn) [Compound 214, 2-({6-[(5-chloro-2-{4-[(1r,3r)-3-{4-[6-(2,6-dioxopiperidin-3-yl)-5-oxo-5H,6H,7H-pyrrolo[3,4-b]pyridin-2-yl]piperidin-1-yl}cyclobutoxy]piperidin-1-yl}pyrimidin-4-yl)amino]-2-oxo-1-(propan-2-yl)-1,2-dihydroquinolin-3-yl}oxy)-N-methylacetamide]",50 to 70%,< 10 nM
< 10 nM,50 to 70%,"CNC(=O)COc1cc2cc(Nc3nc(N4CCC5(CCN(CC6(F)CCN(c7cccc8c7CN(C7CCC(=O)NC7=O)C8=O)CC6)CC5)CC4)ncc3Cl)ccc2n(C(C)C)c1=O (stereo not drawn) [Compound 95, 2-{[6-({5-chloro-2-[9-({1-[2-(2,6-dioxopiperidin-3-yl)-1-oxo-2,3-dihydro-1H-isoindol-4-yl]-4-fluoropiperidin-4-yl}methyl)-3,9-diazaspiro [5.5]undecan-3-yl]pyrimidin-4-yl}amino)-2-oxo-1-(propan-2-yl)-1,2-dihydroquinolin-3-yl]oxy}-N-methylacetamide]",,
